Marks after values point to notes of the source that are not given here. Values belong to the molecule of their own block, whether it stands above or below them.
What was measured:
[1] = Electron donating ability (DPPH radical scavenging, Blois' method); settings: 800 μg/mL
Procedure: DPPH radical scavenging effect was measuring according to the Blois' method (1958). […] After adding 1 mL of the test sample in a test tube, 4×10^−4 M DPPH (4 mL) was added. The resulting mixture was shaken vigorously, allowed to stand in warm water of 60° C. for 10 seconds, and absorbance was measured at 525 nm. BHT was used as the positive control group. Then, free radical scavenging activity of each solution was calculated as “% inhibition” according to the following equation: % inhibition=[1−(Asample/Ablank)]×100, wherein Ab1ank is the absorbance of the control group (excluding the test sample) and Asample is the absorbance of the test compound.

[2] = tested on: UVB-induced hyperpigmentation; assay: Melanin index (mexameter), brown guinea pig; assay type: in vivo; settings: 2% sample topical
Procedure: Three brown guinea pigs weighing 450-550 g were purchased from Oriental Yeast Co. Ltd. (OYC; Japan). The animals were accustomed to the test environment for 7 days. The animals were housed in individual cages under the environment of 22±1° C. and 50±5% relative humidity with 12-hour alternate dark/light cycles. Feed and water were given ad libitum.
UVB-induced hyperpigmentation was elicited on the back of the brown guinea pig according to the method of Choi et al. (2004). After anesthetizing the guinea pig with ketamine hydrochloride (100 mg/kg BW), 24 separate areas (φ 12 mm) on the skin of the back was exposed to UVB radiation (302-nm sunlamp). The areas were exposed to UVB of 500 mJ/cm^2 for 3 consecutive weeks, once a week. That is, a total of 1,500 mJ/cm^2 of UVB was radiated.
On day 10 after the final UVB radiation, 30 μL (1.06 mg/cm^2/day) of 2% HQ, EGCG, GT, WT or BT was topically applied for 4 weeks to the hyperpigmented areas (9 areas per each) using a micropipette, twice a day, and 4 days a week. Saline was used as control, and propylene glycol:ethanol:water (5:3:2) was used as vehicle control.
Before and after the topical application of the test sample, change in melanin pigmentation was measured 3 times in a non-invasive manner using a mexameter, once a week. The degree of pigmentation was analyzed by averaging the measured values.

[3] = tested on: melanin pigmentation in the epithelium; assay: Fontana-Masson's silver staining, melanin-pigmented area; assay type: in vivo, brown guinea pig; settings: week 4; 2% sample
Procedure: In order to observe the morphological change of the skin tissue using an optical microscope, the extracted skin tissue was fixed in a 10% neutral formalin solution for 12 hours and washed with flowing water. After dehydrating in 70, 80, 95 and 100% ethanol followed by washing with xylene, the tissue was embedded in paraffin and 4 μm-thick samples were prepared using a microtome.
Paraffin was removed from the sample using xylene. After staining the sample for 60 minutes in silver nitrate solution at 56° C. according to the Masson's method (1928), followed by washing, color-toning 0.2% gold chloride solution and washing again, the sample was kept in 5% sodium thiosulfate solution for 5 minutes. Subsequently, after washing the sample once again, followed by counterstaining in nuclear fast red solution, dehydration in 95%, 95%, 100% and 100% alcohol and washing with xylene, the sample was put in Canada balsam for microscopic observation. The percentage of the melanin-pigmented area was calculated using an image analysis software.

S-100 protein = assay: Immunohistochemical S-100 staining; assay type: in vivo, brown guinea pig; settings: week 4; 2% sample
Procedure: (§1) After dehydration, followed by washing with xylene and embedding in paraffin, 4 μm-thick samples were prepared. The sample was adhered on a coating slide and stained using the BenchMark XT automated immunostainer (Ventana Medical Systems, USA) after removing paraffin. […] Following reaction with S-100 and HMB-45 primary antibodies diluted to 1:100, the sample was washed with reaction buffer, reacted with biotin for 20 minutes, and then reacted with streptavidin for 25 minutes. After coloring with diaminobenzidine (DAB) using the Ventana detection kit), the sample was stained for observation using an optical microscope.

gp100 protein = assay: Immunohistochemical HMB-45 staining (gp100); assay type: in vivo, brown guinea pig; settings: week 4; 2% sample
Procedure: as §1

tyrosinase = tyrosinase (Homo sapiens, UniProt P14679); settings: Briganti et al. 2003; cited from earlier work
Chain of tyrosinase (P14679 19-529, species assumed): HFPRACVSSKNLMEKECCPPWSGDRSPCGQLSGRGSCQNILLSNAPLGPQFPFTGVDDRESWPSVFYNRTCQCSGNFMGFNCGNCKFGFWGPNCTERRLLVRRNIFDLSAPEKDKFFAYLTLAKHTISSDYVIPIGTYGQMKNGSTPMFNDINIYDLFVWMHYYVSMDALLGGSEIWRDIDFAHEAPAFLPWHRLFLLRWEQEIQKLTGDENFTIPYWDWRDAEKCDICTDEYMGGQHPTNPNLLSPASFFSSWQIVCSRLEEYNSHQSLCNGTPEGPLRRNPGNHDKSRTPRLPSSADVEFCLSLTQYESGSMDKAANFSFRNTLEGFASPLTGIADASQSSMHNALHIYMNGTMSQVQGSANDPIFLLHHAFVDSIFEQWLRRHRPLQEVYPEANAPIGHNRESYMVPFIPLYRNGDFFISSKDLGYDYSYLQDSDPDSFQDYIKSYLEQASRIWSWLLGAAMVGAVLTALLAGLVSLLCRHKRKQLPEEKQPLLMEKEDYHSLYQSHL

hyperpigmentation = settings: Ortonne and Passeron 2005; cited from earlier work
UVB-irradiated skin [4] = assay: Skin erythema index, SKH-1 hairless mouse; assay type: in vivo; settings: for skin erythema index: RA 0.01%, GT/WT/BT 2%
Procedure: (§2) 7-week-old SKH-1 hairless mice was purchased from Charles River (Japan). The animals were accustomed to the test environment for 1 week. The animals were housed in individual cages under the environment of 22±1° C. and 50±5% relative humidity with 12-hour alternate dark/light cycles. Feed and water were given ad libitum. The animals were grouped into 7 groups as follows, with 7 mice per each:
(§3) The mouse was subjected to UVB radiation (302 nm sunlamp) on the back for […], 3 times a week. The radiation amount was 1 minimal erythemal dose (MED: 60 mJ/cm^2) on the 1st week, 2 MED (120 mJ/cm^2) on the 2nd week, 3 MED (180 mJ/cm^2) on the 3rd week, and 4 MED (240 mJ/cm^2) on the 4th to 12th weeks. The radiation with 4 MED was carried out once a week during the test period.
(§4) After inducing wrinkle formation, 200 μL of saline or the sample was applied for 4 weeks, 5 times a week (2%: 0.26 g/kg BW/day). RA was applied together with polyethylene glycol at a concentration of 0.01% for 4 weeks, 5 times a week, twice a day, with 200 μL per each.
(§5) Skin erythema index, water content and transepidermal water loss (TEWL) were measured in a non-invasive manner using a mexameter, a corneometer and a tewameter, once a week during the test period.

UVB-irradiated skin [5] = assay: Skin water content (corneometer), SKH-1 hairless mouse; assay type: in vivo; settings: for water content of the skin: RA 0.01%, GT/WT/BT 2%
Procedure: as §2, §3, §4, §5

UVB-irradiated skin [6] = assay: Transepidermal water loss (TEWL), SKH-1 hairless mouse; assay type: in vivo; settings: for TEWL: RA 0.01%, GT/WT/BT 2%
Procedure: as §2, §3, §4, §5

UVB-induced wrinkles = assay: Measurement of wrinkles (skin replica, Visioline); assay type: in vivo, SKH-1 hairless mouse; settings: RA 0.01%, GT/WT/BT 2%
Procedure: as §2, §3, §4
Skin replica was prepared from the back skin of the hairless mouse using the Silflo impression material (Flexico, England). The roughness of the skin was assessed using Visioline. Total wrinkle area (mm^2) was calculated.

MMP-3 = assay: RT-PCR, MMP-3 mRNA in skin tissue; assay type: in vivo, SKH-1 hairless mouse; settings: RA 0.01%, GT/WT/BT 2%
Procedure: 50 mg of the sample from the mouse back skin kept at low temperature was homogenized with 1 mL of Trizol. The homogenized sample was incubated at room temperature for 5 minutes after adding 200 μL of chloroform, and centrifuged at 15,000 rpm and 4° C. for 10 minutes. After collecting and transferring the supernatant to a fresh tube and adding 500 μL of isopropyl alcohol, the sample was centrifuged at 4° C. and 15,000 rpm for 15 minutes. The resulting RNA pellet was washed with 1 mL of 70% ethanol and centrifuged at 4° C. and 15,000 rpm for 15 minutes. The RNA pellet finally obtained by removing the supernatant was diluted with diethylpyrocarbonate (DEPC) and quantitated with 1.8<optical density (OD; A260/A280)<2.0 using a white light/UV transilluminator. cDNA was synthesized from total RNA at a concentration of 0.1-1 μg/μL using the Cycle Script RT PreMix (dT20) kit. The cDNA synthesis was performed by 12 cycles of 1 minute at 30° C. and 4 minutes at 50° C. in 205 μL of DEPC, and the sample was heated at 95° C. for 5 minutes. Polymerase chain reaction (PCR) was carried out in 15.2 μL of sterilized water containing 2 μL of template and […] of primer using the Accupower™ PCR PreMix kit. The reaction was carried out for 35 cycles. […] DNA band density was calculated using the Kodak Gel Logic 100 image analysis system.

[7] = Water and feed intake, feed efficiency and body weight; assay type: in vivo, SKH-1 hairless mouse
Procedure: Water and feed intake of the test animal was measured once a week. Body weight was measured between 09:00 and 10:00 in the morning, once a week during the test period.

[8] = Organ weight (spleen, thymus); assay type: in vivo, SKH-1 hairless mouse
Procedure: After extracting the skin, a portion of the skin was fixed in 10% neutral-buffered formalin solution for histological analysis and the remainder was kept in a refrigerator (−80° C.) for analysis of MMPs. Thymus and spleen extracts were washed with saline and weighed on an electronic scale after removing water with filer paper.

Hematological analysis = assay type: in vivo, SKH-1 hairless mouse; settings: RA 0.01%, GT/WT/BT 2%
Procedure: Blood sample was added to a blood collection tube containing the anticoagulant K2EDTA and mixed for more than 5 minutes. Then, concentration of erythrocytes, leukocytes, neutrophils, eosinophils, basophils, lymphocytes, monocytes, platelets and hemoglobin and hematocrit were measured using a hematological analyzer.

SMILES: Oc1ccc(O)cc1 [HQ, Hydroquinone]
Electron donating ability [1]: 93%
melanin index ([2]; week 0): 724.8 ± 22.8^a AU
melanin index ([2]; week 1): 702.9 ± 24.4^a* AU
melanin index ([2]; week 2): 673.9 ± 26.1^c AU
melanin index ([2]; week 3): 636.7 ± 25.8^b AU
melanin index ([2]; week 4): 583.0 ± 28.0^b AU
melanin index decreased by, as compared to the group C ([2]; week 4): 17%
% of melanin pigment [3]: 9.5 ± 1.5^bc %
Melanin pigment area [3]: 1163 ± 268 μm^2
melanin pigmented area decreased by, as compared to the control group [3]: 53%
% of S-100 Protein (S-100 protein): 4.3 ± 0.5^ab %
S-100 Protein area (S-100 protein): 511 ± 89 μm^2
area of S-100 protein expression, decrease by, as compared to the control groups (S-100 protein): 69%
% of Melanin pigment (Table 5, gp 100 protein) (gp100 protein): 4.4 ± 0.8^c %
Melanin pigment (area; Table 5, gp 100 protein) (gp100 protein): 469 ± 111 μm^2
area of gp 100 protein expression, decrease by, as compared to the group C (gp100 protein): 68%
decreases tyrosinase activity up to (tyrosinase): up to 90%
improves hyperpigmentation in % of cases (hyperpigmentation): 14-70%

Spleen absolute weight ([8]; RA 0.01%, GT/WT/BT 2%): 0.136 ± 0.015^a g
Spleen relative weight ([8]; RA 0.01%, GT/WT/BT 2%): 0.475 ± 0.053^a g/100 g body weight
Thymus absolute weight ([8]; RA 0.01%, GT/WT/BT 2%): 0.019 ± 0.005^ab g
Thymus relative weight ([8]; RA 0.01%, GT/WT/BT 2%): 0.067 ± 0.01^ab g/100 g body weight
organ weight relative to the normal group ([8]; p <0.05): significantly lower
Basophil (Hematological analysis): 0.004 ± 0.04^a k/μl
Eosinophil (Hematological analysis): 0.050 ± 0.05^a k/μl
HCT (Hematological analysis): 43.442 ± 0.87^b %
Hb (Hematological analysis): 13.800 ± 0.18^b g/dl
Lymphocyte (Hematological analysis): 6.462 ± 0.34^c k/μl
Monocyte (Hematological analysis): 0.204 ± 0.06^b k/μl
Neutrophil (Hematological analysis): 2.340 ± 0.39^cd k/μl
Platelet (Hematological analysis): 517.80 ± 16.44^b k/μl
RBC (Hematological analysis): 4.274 ± 0.17^b M/μl
WBC (Hematological analysis): 9.114 ± 0.55^b k/μl
SMILES: CC1=C(/C=C/C(C)=C/C=C/C(C)=C/C(=O)O)C(C)(C)CCC1 [RA, retinoic acid]
skin erythema index (UVB-irradiated skin [4]; week 1): 314.38 ± 17.33^c AU
skin erythema index (UVB-irradiated skin [4]; week 2): 301.10 ± 16.60^b AU
skin erythema index (UVB-irradiated skin [4]; week 3): 294.43 ± 13.14^b AU
skin erythema index lower as compared to the control group (UVB-irradiated skin [4]; week 4): 32%
skin erythema index (UVB-irradiated skin [4]; week 4): 282.64 ± 15.50^b AU
water content of the skin (UVB-irradiated skin [5]; week 1): 57.99 ± 7.31^b AU
water content of the skin (UVB-irradiated skin [5]; week 2): 65.70 ± 5.75^c AU
water content of the skin (UVB-irradiated skin [5]; week 3): 71.42 ± 5.82^cd AU
water content higher as compared to the control group (UVB-irradiated skin [5]; week 4): 207%
water content of the skin (UVB-irradiated skin [5]; week 4): 88.59 ± 4.87^cd AU
TEWL (UVB-irradiated skin [6]; week 1): 24.16 ± 4.49^c** g/m^2/h
TEWL (UVB-irradiated skin [6]; week 2): 18.33 ± 4.85^b** g/m^2/h
TEWL (UVB-irradiated skin [6]; week 3): 18.76 ± 3.66^c g/m^2/h
TEWL lower as compared to the control group (UVB-irradiated skin [6]; week 4): 58%
TEWL (UVB-irradiated skin [6]; week 4): 16.90 ± 3.59^b g/m^2/h
decreased wrinkle area as compared to the control group (UVB-induced wrinkles): 49%
expression level of MMP-3 mRNA lower as compared to the control group (MMP-3): 77%
Food efficiency ratio ([7]; (Body weight gain/Food intake) × 100): −0.94 ± 1.71^a %
Body weight gain ([7]; RA 0.01%, GT/WT/BT 2%): −0.050 ± 0.09^a g/day
Food intake ([7]; RA 0.01%, GT/WT/BT 2%): 5.36 ± 1.06^a g/day
Water intake ([7]; RA 0.01%, GT/WT/BT 2%): 8.57 ± 1.75^b Ml/day
water intake as compared to the control group ([7]; p <0.05): remarkably higher water intake

Source: patent US20120156150A1, “Composition for Improving Skin Condition Comprising Extract from Black Tea as Active Ingredient” (Keimyung University Industry Academic Cooperation Foundation, priority 2010, published 2012)
